# Experimental data published in patent publication US20050250801A1, “Method of treating cancer with azaspirane compositions” (priority 2003, published 2005).
# Where two headings read alike, the source gives them in different places.
# Assays:
# Type in all cases: cell-based
# HUVEC = HUVEC cord formation assay (Matrigel); conditions: Homo sapiens, 24 hour incubation, read-out: IC50 Concentration, Cord Formation
# Method: Matrigel (60 μl of 10 mg/ml; Collaborative Lab # 35423) was placed in each well of an ice-cold 96-well plate. The plate is allowed to sit at room temperature for 15 minutes then incubated at 37° C. for 30 minutes to permit the matrigel to polymerize. In the mean time, HUVEC are prepared in EGM-2 (Clonetic# CC3162) at a concentration of 2×10^5 cells/ml. Test solutions of Compound I are prepared at 2× the desired concentration (5 concentration levels) in the same medium. The cells (500 μl) and 2× Compound 1 (500 μl) solution are mixed and 200 μl of this suspension are placed in duplicate on the polymerized matrigel. After a 24 hour incubation, triplicate pictures are taken for each concentration using a Bioquant Image Analysis system. Drug effect (IC50) is assessed compared to untreated controls by measuring the length of cords formed and number of junctions, and is reported in Table 8.
# EKVX = experiment: NCI in vitro SRB assay, Non-Small Cell Lung Cancer; conditions: for GI50: Homo sapiens
# Method: (§1) An in vitro assay which tested the ability of N,N,-diethyl-8,8-dipropyl-2-azaspiro[4,5]decane-2-propanamine dimaleate (Compound 1) to inhibit the growth of known cancer cell lines was performed by the National Cancer Institute in accordance with standard procedures. See: Lin, Z. X., Hoult, J. R., and Raman, A. Sulphorhodamine B assay for measuring proliferation of a pigmented melanocyte cell line and its application to the evaluation of crude drugs used in the treatment of vitiligo. J Ethnopharmacol. 66: 141-150, 1999. Briefly, selected tumor cell lines were cultured in media containing five different concentrations of Compound 1. After 48 hours of continuous exposure, a sulforhodamine B (SRB) assay was used to estimate cell viability or growth via optical measurements.
# (§2) From the measurements, the following values were determined: 1) the concentration of Compound 1 at which a tumor cell growth inhibition of 50% (relative to control) occurs (GI50), 2) the concentration of Compound 1 at which no growth occurs (total growth inhibition, TGI), and 3) the concentration of Compound 1 at which the […] (LC 50). […] FIG. 6 illustrates, graphically, tumor cell growth as a function of Compound 1 concentration of the scanned tumor cell lines.
# NCI-H460 = experiment: NCI in vitro SRB assay, Non-Small Cell Lung Cancer; conditions: for CC50 / GI50: Homo sapiens
# Method: as §1, §2
# NCI-H522 = experiment: NCI in vitro SRB assay, Non-Small Cell Lung Cancer; conditions: for CC50 / GI50: Homo sapiens
# Method: as §1, §2
# A549/ATCC = experiment: NCI in vitro SRB assay, Non-Small Cell Lung Cancer; conditions: for CC50 / GI50: Homo sapiens
# Method: as §1, §2
# HOP-62 = experiment: NCI in vitro SRB assay, Non-Small Cell Lung Cancer; conditions: for CC50 / GI50: Homo sapiens
# Method: as §1, §2
# HOP-92 = experiment: NCI in vitro SRB assay, Non-Small Cell Lung Cancer; conditions: for CC50 / GI50: Homo sapiens
# Method: as §1, §2
# [1] = NCI-H460, Log10 conc -4.0 Moles/L
# [2] = NCI-H460, Log10 conc -5.0 Moles/L
# [3] = NCI-H460, Log10 conc -6.0 Moles/L
# [4] = NCI-H460, Log10 conc -7.0 Moles/L
# [5] = NCI-H460, Log10 conc -8.0 Moles/L
# [6] = NCI-H522, Log10 conc -4.0 Moles/L
# [7] = NCI-H522, Log10 conc -5.0 Moles/L
# [8] = NCI-H522, Log10 conc -6.0 Moles/L
# [9] = NCI-H522, Log10 conc -7.0 Moles/L
# [10] = NCI-H522, Log10 conc -8.0 Moles/L
# [11] = A549/ATCC, Log10 conc -4.0 Moles/L
# [12] = A549/ATCC, Log10 conc -5.0 Moles/L
# [13] = A549/ATCC, Log10 conc -6.0 Moles/L
# [14] = A549/ATCC, Log10 conc -7.0 Moles/L
# [15] = A549/ATCC, Log10 conc -8.0 Moles/L
# [16] = HOP-62, Log10 conc -4.0 Moles/L
# [17] = HOP-62, Log10 conc -5.0 Moles/L
# [18] = HOP-62, Log10 conc -6.0 Moles/L
# [19] = HOP-62, Log10 conc -7.0 Moles/L
# [20] = HOP-62, Log10 conc -8.0 Moles/L
# [21] = HOP-92, Log10 conc -4.0 Moles/L
# [22] = HOP-92, Log10 conc -5.0 Moles/L
# [23] = HOP-92, Log10 conc -6.0 Moles/L
# [24] = HOP-92, Log10 conc -7.0 Moles/L
# [25] = HOP-92, Log10 conc -8.0 Moles/L
structure (smiles),measurement,setting,value
"CCCC1(CCC)CCC2(CCN(CCCN(CC)CC)C2)CC1.O=C(O)/C=C\C(=O)O.O=C(O)/C=C\C(=O)O [Compound 1, N,N,-diethyl-8,8-dipropyl-2-azaspiro[4,5]decane-2-propanamine dimaleate]",IC50,HUVEC,2630 nM
same,Log10 TGI,EKVX,−5.39
same,TGI,EKVX,4090 nM
same,GI50,EKVX; read-out: GI50,2110 nM
same,GI50,EKVX; read-out: Log10 GI50 (converted),2090 nM
same,Mean Optical Densities,EKVX; Log10 conc -4.0 Moles/L,0.073
same,Percent Growth,EKVX; Log10 conc -4.0 Moles/L,−88%
same,Mean Optical Densities,EKVX; Log10 conc -5.0 Moles/L,0.202
same,Percent Growth,EKVX; Log10 conc -5.0 Moles/L,−67%
same,Mean Optical Densities,EKVX; Log10 conc -6.0 Moles/L,1.321
same,Percent Growth,EKVX; Log10 conc -6.0 Moles/L,106%
same,Mean Optical Densities,EKVX; Log10 conc -7.0 Moles/L,1.336
same,Percent Growth,EKVX; Log10 conc -7.0 Moles/L,108%
same,Mean Optical Densities,EKVX; Log10 conc -8.0 Moles/L,1.280
same,Percent Growth,EKVX; Log10 conc -8.0 Moles/L,100%
same,CC50,"NCI-H460; NCI-H460, read-out: LC50",5080 nM
same,CC50,"NCI-H460; NCI-H460, read-out: Log10 LC50 (converted)",5130 nM
same,GI50,"NCI-H460; NCI-H460, read-out: GI50",1310 nM
same,GI50,"NCI-H460; NCI-H460, read-out: Log10 GI50 (converted)",1320 nM
same,Log10 TGI,NCI-H460; NCI-H460,−5.59
same,TGI,NCI-H460; NCI-H460,2580 nM
same,Mean Optical Densities,NCI-H460; [1],0.015
same,Percent Growth,NCI-H460; [1],−90%
same,Mean Optical Densities,NCI-H460; [2],−0.001
same,Percent Growth,NCI-H460; [2],−100%
same,Mean Optical Densities,NCI-H460; [3],1.075
same,Percent Growth,NCI-H460; [3],70%
same,Mean Optical Densities,NCI-H460; [4],1.278
same,Percent Growth,NCI-H460; [4],85%
same,Mean Optical Densities,NCI-H460; [5],1.403
same,Percent Growth,NCI-H460; [5],95%
same,CC50,"NCI-H522; NCI-H522, read-out: LC50",> 100000 nM
same,CC50,"NCI-H522; NCI-H522, read-out: Log10 LC50 (converted)",> 100000 nM
same,GI50,"NCI-H522; NCI-H522, read-out: GI50",1180 nM
same,GI50,"NCI-H522; NCI-H522, read-out: Log10 GI50 (converted)",1170 nM
same,Log10 TGI,NCI-H522; NCI-H522,−5.22
same,TGI,NCI-H522; NCI-H522,6050 nM
same,Mean Optical Densities,NCI-H522; [6],0.099
same,Percent Growth,NCI-H522; [6],−7%
same,Mean Optical Densities,NCI-H522; [7],0.091
same,Percent Growth,NCI-H522; [7],−15%
same,Mean Optical Densities,NCI-H522; [8],0.347
same,Percent Growth,NCI-H522; [8],55%
same,Mean Optical Densities,NCI-H522; [9],0.531
same,Percent Growth,NCI-H522; [9],97%
same,Mean Optical Densities,NCI-H522; [10],0.518
same,Percent Growth,NCI-H522; [10],94%
same,Log10 TGI,A549/ATCC; A549/ATCC,−5.48
same,TGI,A549/ATCC; A549/ATCC,3330 nM
same,Mean Optical Densities,A549/ATCC; [11],0.056
same,Percent Growth,A549/ATCC; [11],−78%
same,Mean Optical Densities,A549/ATCC; [12],0.070
same,Percent Growth,A549/ATCC; [12],−73%
same,Mean Optical Densities,A549/ATCC; [13],1.126
same,Percent Growth,A549/ATCC; [13],80%
same,Mean Optical Densities,A549/ATCC; [14],1.307
same,Percent Growth,A549/ATCC; [14],96%
same,Mean Optical Densities,A549/ATCC; [15],1.277
same,Percent Growth,A549/ATCC; [15],94%
same,CC50,"A549/ATCC; A549, read-out: LC50",7080 nM
same,CC50,"A549/ATCC; A549, read-out: Log10 LC50 (converted)",7080 nM
same,GI50,"A549/ATCC; A549/ATCC, read-out: GI50",1570 nM
same,GI50,"A549/ATCC; A549/ATCC, read-out: Log10 GI50 (converted)",1580 nM
same,Log10 TGI,HOP-62; HOP-62,−5.54
same,TGI,HOP-62; HOP-62,2910 nM
same,Mean Optical Densities,HOP-62; [16],0.090
same,Percent Growth,HOP-62; [16],−79%
same,Mean Optical Densities,HOP-62; [17],0.056
same,Percent Growth,HOP-62; [17],−87%
same,Mean Optical Densities,HOP-62; [18],0.693
same,Percent Growth,HOP-62; [18],75%
same,Mean Optical Densities,HOP-62; [19],0.757
same,Percent Growth,HOP-62; [19],93%
same,Mean Optical Densities,HOP-62; [20],0.711
same,Percent Growth,HOP-62; [20],80%
same,CC50,"HOP-62; HOP-62, read-out: LC50",5930 nM
same,CC50,"HOP-62; HOP-62, read-out: Log10 LC50 (converted)",5890 nM
same,GI50,"HOP-62; HOP-62, read-out: GI50",1430 nM
same,GI50,"HOP-62; HOP-62, read-out: Log10 GI50 (converted)",1450 nM
same,Log10 TGI,HOP-92; HOP-92,−5.41
same,TGI,HOP-92; HOP-92,3920 nM
same,Mean Optical Densities,HOP-92; [21],0.106
same,Percent Growth,HOP-92; [21],−87%
same,Mean Optical Densities,HOP-92; [22],0.542
same,Percent Growth,HOP-92; [22],−33%
same,Mean Optical Densities,HOP-92; [23],1.227
same,Percent Growth,HOP-92; [23],49%
same,Mean Optical Densities,HOP-92; [24],1.412
same,Percent Growth,HOP-92; [24],71%
same,Mean Optical Densities,HOP-92; [25],1.529
same,Percent Growth,HOP-92; [25],85%
same,CC50,"HOP-92; HOP-92, read-out: LC50",20300 nM
same,CC50,"HOP-92; HOP-92, read-out: Log10 LC50 (converted)",20400 nM
same,GI50,"HOP-92; HOP-92, read-out: GI50",897 nM
same,GI50,"HOP-92; HOP-92, read-out: Log10 GI50 (converted)",891 nM
